What was measured:
[1] = tested on: Human MDDCs (Monocyte-derived DC cells); assay: Maturation of dendritic cells: surface marker expression by flow cytometry, human MDDCs; type: cell-based; settings: 1 μg/ml, 37° C., 24 hrs
Method: (§1) Approximately 80 ml of blood from healthy human donors was collected and isolated peripheral blood mononuclear cells (PBMCs) with Ficoll-Paque™ gradient separation method. Monocytes were isolated from PBMCs using anti-CD14 microbeads (MACS system), seeded at […] in a 24-well plate with RPMI medium contained 10% FBS, IL-4 and GM-CSF and cultured to obtain human MDDCs. Bone marrow cells were isolated from male BALB/c mouse and cultured with medium contained IL-4 and GM-CSF for 6 days to obtain BMDCs. Then, at 7 days, CD11c^+ cells were isolated using anti-CD11c-coated magnetic beads.
(§2) Human MDDCs (Monocyte-derived DC cells) and mouse BMDC (Bone marrow DCs) were isolated with the method described above, treated respectively with LPS, MPL and CIA05 with 1 μg/ml of concentration and incubated at 37° C. for 24 hrs. After incubation, CD40, CD80 and CD86 were verified in mouse BMDCs surface, and HLA-DR, CD80 and CD86 were verified in human MDDCs by flow cytometry, respectively. […] Therefore, CIA05 may solve these problems.

[2] = tested on: mouse BMDC (Bone marrow DCs); assay: Maturation of dendritic cells: surface marker expression by flow cytometry, mouse BMDC; type: cell-based; settings: mouse BMDCs, 1 μg/ml, 37° C., 24 hrs
Method: as §1, §2

Substance	expression of MDDCs surface marker HLA-DR, CD80 and CD86 [1]	expression of DCs surface marker CD40, CD80 and CD86 [2]
Monophosphoryl lipid A [MPL]	limited in human	expressed with similar distribution
lipopolysaccharide [LPS]		expressed with similar distribution

Source: US9572877B2 (priority 2010, dated 2017)
